Source: patent publication US20130204033A1, “ANTIPROLIFERATIVE COMPOUNDS, CONJUGATES THEREOF, METHODS THEREFOR, AND USES THEREOF” (Medarex, Inc., priority 2009, published 2013)
Read-outs that look alike come from different tables or passages of the source.

How the values were obtained:
Assay type in all cases: cell-based, human
[1] = test system: Hep3B; test: 3H thymidine proliferation assay, Hep3B
Method: (§1) This example generally describes the procedures used to assay the antiproliferative activity of compounds of this invention or their conjugates. Human tumor cell lines were obtained from the American Type Culture Collection (ATCC), P.O. Box 1549, Manassas, Va. 20108, USA, and cultured according to instruction from the ATCC. Cells were seeded at 1.0×10^3 or 1.0×10^4 cells/well in 96-well plates for 3 h for ATP assays or ^3H thymidine assays, respectively. 1:3 serial dilutions of free (unconjugated) compounds or their conjugates were added to the wells. Plates were allowed to incubate for 24 to 72 h. The ^3H thymidine plates were pulsed with 1.0 μCi of ^3H-thymidine per well for the last 24 hours of the total incubation period, harvested, and read on a Top Count Scintillation Counter (Packard Instruments, Meriden, Conn.). ATP levels in the ATP plates were measured using the […]-GLO® Luminescent Cell Viability kit following the manufacturer's manual and read on a GLOMAX® 20/20 luminometer (both from Promega, Madison, Wis., USA). The EC50 values—the concentration at which an agent inhibits or reduces cell proliferation by 50% —were determined using PRISM™ software, version 4.0 (GraphPad Software, La Jolla, Calif., USA).
(§2) Using the ^3H thymidine or the ATP luminescence assay, or both, the activities of compounds of this invention were assayed against the following cancer cell lines: HCT-15 (colorectal cancer, multi-drug resistant (MDR)); Hep3B (liver cancer); LNCaP (prostate cancer, androgen receptor positive (AR^+)); MDA-MB-231 (breast cancer, estrogen receptor, progesterone receptor, and Her2 negative (triple negative)); A2058 (melanoma); U-87 MG (glioblastoma); NCI-H460 (NSCLC); A549 (NSCLC); HPAC (pancreatic cancer, primary); PC3 (prostate cancer, AR); BT474 (breast cancer, Her2 highly positive (Her2hi)); SKOV3 (ovarian cancer, Her2hi); 786-O (renal cancer); UO-31 (renal cancer, MDR); NCI-H740 (SCLC); DMS53 (SCLC); SK-BR3 (breast cancer, Her2hi); ZR-75 (breast cancer, estrogen receptor positive); OVCAR3 (ovarian cancer); HL-60 (APL); OVCAR8/Adr (ovarian cancer, MDR); CEM-Cl (ALL); Nomo-1 (AML); RPMI-8226 (MM)); Raji (lymphoma); SW-480 (colorectal cancer, metastatic); SW-620 (colorectal cancer); and H226 (lung cancer). (Not all compounds were assayed against all cell lines.)
(§3) Table 2 provides the data for proliferation assays using the ^3H thymidine method, with an incubation period of 72 h.

[2] = test system: BT474; test: 3H thymidine proliferation assay, BT474
Method: as §1, §2, §3

[3] = test system: BT474; test: ATP luminescence proliferation assay, BT474
Method: as §1, §2
(§4) Table 3 provides the data for the ATP luminescence proliferation assays, with an incubation period of 48, 72, or 96 h, as noted.

[4] = test system: NCI-H460; test: 3H thymidine proliferation assay, NCI-H460
Method: as §1, §2, §3

[5] = test system: MDA-MB-231; test: ATP luminescence proliferation assay, MDA-MB-231
Method: as §1, §2, §4

[6] = test system: DMS53; test: 3H thymidine proliferation assay, DMS53
Method: as §1, §2, §3

[7] = test system: OVCAR8; test: 3H thymidine proliferation assay, OVCAR8
Method: as §1, §2, §3

[8] = test system: HPAC; test: 3H thymidine proliferation assay, HPAC
Method: as §1, §2, §3

[9] = test system: A2058; test: ATP luminescence proliferation assay, A2058
Method: as §1, §2, §4

[10] = test system: 786-O; test: 3H thymidine proliferation assay, 786-O
Method: as §1, §2, §3

[11] = test system: A549; test: ATP luminescence proliferation assay, A549
Method: as §1, §2, §4

[12] = test system: LNCaP; test: ATP luminescence proliferation assay, LNCaP
Method: as §1, §2, §4

[13] = Homo sapiens, Hep3B, read-out: EC50, Hep3B, 3H thymidine method, 72 h incubation
[14] = Homo sapiens, BT-474, read-out: EC50, BT474, 3H thymidine method, 72 h incubation
[15] = Homo sapiens, BT-474, 48 h, read-out: EC50 BT474 (48 h), ATP luminescence, BT474, 48 h incubation
[16] = Homo sapiens, NCI-H460, read-out: EC50, NCI-H460, 3H thymidine method, 72 h incubation
[17] = Homo sapiens, MDA-MB-231, 48 h, read-out: EC50 MDA-MB-231 (48 h), ATP luminescence, MDA-MB-231, 48 h incubation
[18] = Homo sapiens, DMS-53, read-out: EC50, DMS53, 3H thymidine method, 72 h incubation
[19] = Homo sapiens, OVCAR-8, read-out: EC50, OVCAR8, 3H thymidine method, 72 h incubation
[20] = Homo sapiens, HPAC, read-out: EC50, HPAC, 3H thymidine method, 72 h incubation
[21] = Homo sapiens, A2058, 48 h, read-out: EC50 A2058 (48 h), ATP luminescence, A2058, 48 h incubation
[22] = 3H thymidine method, 72 h incubation, read-out: EC50, Hep3B
[23] = 3H thymidine method, 72 h incubation, read-out: EC50, BT474
[24] = ATP luminescence, BT474, 48 h incubation, read-out: EC50 BT474 (48 h)
[25] = 3H thymidine method, 72 h incubation, read-out: EC50, NCI-H460
[26] = 3H thymidine method, 72 h incubation, read-out: EC50, 786-O
[27] = ATP luminescence, MDA-MB-231, 48 h incubation, read-out: EC50 MDA-MB-231 (48 h)
[28] = 3H thymidine method, 72 h incubation, read-out: EC50, DMS53
[29] = 3H thymidine method, 72 h incubation, read-out: EC50, OVCAR8
[30] = 3H thymidine method, 72 h incubation, read-out: EC50, HPAC
[31] = ATP luminescence, A2058, 48 h incubation, read-out: EC50 A2058 (48 h)
[32] = Homo sapiens, 786-0, read-out: EC50, 786-O, 3H thymidine method, 72 h incubation
[33] = ATP luminescence, MDA-MB-231, 72 h incubation, read-out: EC50 MDA-MB-231 (72 h)
[34] = ATP luminescence, A2058, 72 h incubation, read-out: EC50 A2058 (72 h)
[35] = Homo sapiens, MDA-MB-231, 72 h, read-out: EC50 MDA-MB-231 (72 h), ATP luminescence, MDA-MB-231, 72 h incubation
[36] = Homo sapiens, A2058, 72 h, read-out: EC50 A2058 (72 h), ATP luminescence, A2058, 72 h incubation

| SMILES | EC50 [1, 13] [nM] | EC50 [2, 14] [nM] | EC50 [3, 15] [nM] | EC50 [4, 16] [nM] | EC50 [6, 18] [nM] | EC50 [7, 19] [nM] | EC50 [8, 20] [nM] | EC50 [1, 22] [nM] | EC50 [2, 23] [nM] | EC50 [3, 24] [nM] | EC50 [4, 25] [nM] | EC50 [10, 26] [nM] | EC50 [6, 28] [nM] | EC50 [7, 29] [nM] | EC50 [8, 30] [nM] | EC50 [10, 32] [nM] | EC50 [9, 34] [nM] | also measured |
| --- | --- | --- | --- | --- | --- | --- | --- | --- | --- | --- | --- | --- | --- | --- | --- | --- | --- | --- |
| CC[C@H](C)[C@H](NC(=O)[C@H]1CCCCN1C)C(=O)N(C)[C@H](C[C@@H](OC)c1nc(C(=O)NC(Cc2ccccc2)C[C@H](C)C(=O)O)cs1)C(C)C (some centres unmarked) [Compound 15] | 1.6 | 7.1 | 3.5 | 2 | 37 | 423 | 3 |  |  |  |  |  |  |  |  |  |  | EC50 [5, 17]: 5.6 nM; EC50 [9, 21]: 3.5 nM |
| CC[C@H](C)[C@H](NC(=O)[C@H]1CCCCN1C)C(=O)N(C)[C@H](C[C@@H](OC)c1nc(C(=O)N[C@@H](Cc2ccccc2)C(=O)OC)cs1)C(C)C [Compound 16] |  |  |  |  |  |  |  | > 100 | > 100 | 19 | > 100 | 19 | > 100 | 1870 | > 100 |  |  | EC50 [5, 27]: 28 nM; EC50 [9, 31]: 30 nM |
| CCCC(NC(=O)c1csc([C@@H](C[C@H](C(C)C)N(C)C(=O)[C@@H](NC(=O)[C@H]2CCCCN2C)[C@@H](C)CC)OC)n1)C(=O)OC (some centres unmarked) [Compound 17] | > 100 | > 100 | 23 | > 100 | > 100 | 2970 | > 100 |  |  |  |  |  |  |  |  | 32 |  | EC50 [5, 17]: 65 nM; EC50 [9, 21]: 30 nM |
| CCC[C@H](NC(=O)[C@H](Cc1ccccc1)NC(=O)c1csc([C@@H](C[C@H](C(C)C)N(C)C(=O)[C@@H](NC(=O)[C@H]2CCCCN2C)[C@@H](C)CC)OC)n1)C(=O)OC [Compound 19] |  |  |  |  |  |  |  | 52 | > 100 | 8.8 | > 100 | > 100 | > 100 | 69 | > 100 |  | 26 | EC50 [5, 33]: 32 nM |
| CC[C@H](C)[C@H](NC(=O)[C@H]1CCCCN1C)C(=O)N(C)[C@H](C[C@@H](OC)c1nc(C(=O)N[C@@H](Cc2ccccc2)C(=O)N[C@@H](C)C(=O)OC)cs1)C(C)C [Compound 24] | 32 | > 100 | 4.6 | > 100 | > 100 | > 100 | > 100 |  |  |  |  |  |  |  |  | > 100 |  | EC50 [5, 35]: 13 nM; EC50 [9, 36]: 14 nM |
| CC[C@H](C)[C@H](NC(=O)[C@H]1CCCCN1C)C(=O)N(C)[C@H](C[C@@H](OC)c1nc(C(=O)N[C@H](CC(=O)OC)Cc2ccccc2)cs1)C(C)C [Compound 25] | 305 | 804 | 166 | 306 | 515 | 946 | 206 |  |  |  |  |  |  |  |  | 1860 |  | EC50 ([11]; Homo sapiens, A549, 48 h, read-out: EC50 A549 (48 h), ATP luminescence, A549, 48 h incubation): 111 nM; EC50 [5, 35]: 202 nM; EC50 [9, 36]: 212 nM |
| CC[C@H](C)[C@H](NC(=O)[C@H]1CCCCN1C)C(=O)N(C)[C@H](C[C@@H](OC)c1nc(C(=O)N[C@H](CCC(=O)OC)Cc2ccccc2)cs1)C(C)C [Compound 26] | 18 | 11 | 19 | 18 | 99 | 201 | 11 |  |  |  |  |  |  |  |  | 26 |  | EC50 [5, 17]: 120 nM; EC50 [9, 21]: 93 nM; EC50 ([12]; Homo sapiens, 72 h, read-out: EC50 LNCaP (72 h), ATP luminescence, LNCaP, 72 h incubation): 412 nM |
| CC[C@H](C)[C@H](NC(=O)[C@H]1CCCCN1C)C(=O)N(COC(=O)CC(C)C)[C@H](C[C@@H](O)c1nc(C(=O)N[C@@H](Cc2ccccc2)C(=O)OC)cs1)C(C)C [Compound 28] |  |  |  |  |  |  |  | 24 | > 100 | 12 | > 100 | 61 | > 100 | 27 | 34 |  | 20 | EC50 [5, 33]: 16 nM |
| CC[C@H](C)[C@H](NC(=O)[C@H]1CCCCN1C)C(=O)N(COC(=O)CC(C)C)[C@H](C[C@@H](OC(C)=O)c1nc(C(=O)N[C@@H](Cc2ccccc2)C(=O)OC)cs1)C(C)C [Compound 29] |  |  |  |  |  |  |  | 0.041 | 0.57 | 1.5 | 0.21 | 1.2 | 0.28 | 0.7 | 0.069 |  | 2.9 | EC50 ([11]; ATP luminescence, A549, 48 h incubation, read-out: EC50 A549 (48 h)): 3.9 nM; EC50 [5, 33]: 5.1 nM |
| CC[C@H](C)[C@H](NC(=O)[C@H]1CCCCN1C)C(=O)N(COC)[C@H](C[C@@H](OC)c1nc(C(=O)N[C@@H](Cc2ccccc2)C(=O)OC)cs1)C(C)C [Compound 29c] |  |  |  |  |  |  |  | 3 | 12 | 492 | 15 | 3.9 | 76 | 1.4 | 32 |  |  | EC50 [5, 27]: 52 nM; EC50 [9, 31]: 32 nM; EC50 ([12]; ATP luminescence, 72 h incubation, read-out: EC50 LNCaP (72 h)): 255 nM |
| CC[C@H](C)[C@H](NC(=O)[C@H]1CCCCN1C)C(=O)N(C)[C@H](C[C@@H](OC)c1nc(C(=O)N[C@@H](Cc2ccc(N)cc2)CC(C)C(=O)O)cs1)C(C)C (some centres unmarked) [Compound 51] |  |  |  |  |  |  |  | 4.2 | 30 | 11 | 7.2 | 10 | 24 | 20 | 6.4 |  | 5.5 |  |
| CC[C@H](C)[C@H](NC(=O)[C@H]1CCCCN1C)C(=O)N(C)[C@H](C[C@@H](OC(C)=O)c1nc(C(=O)N[C@@H](Cc2ccc(N)cc2)C(=O)O)cs1)C(C)C [Compound 56] |  |  |  |  |  |  |  | > 100 | > 100 | > 100 | > 100 | 29 | > 100 | > 3000 | > 100 |  |  | EC50 [5, 27]: > 100 nM; EC50 [9, 31]: > 100 nM |
